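Where inhibition never reached the appropriate level, the endpoint shown equals the highest concentration tested. Otherwise, values were interpolated linearly from a five-concentration, 48-hour dose response in 96-well plates. Here, GI50 denotes the concentration required for 50% inhibition of growth.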 Active and inactive are the calls of the source. Rule as the data show it: active = GI50 up to about 1.1 µM and inactive = higher.
Tests used:
Assay in all cases: growth of human tumour cells (NCI), 48 h
Hs-578T = test system: Hs-578T
DLD-1 = test system: DLD-1
DMS-114 = test system: DMS-114
HOP-18 = test system: HOP-18
KM-20L2 = test system: KM-20L2
M19-MEL = test system: M19-MEL
SNB-78 = test system: SNB-78
XF498 = test system: XF498
RXF 631 = test system: RXF 631

Structure (SMILES): c1ccc(COC2NCCN2Cc2ccccc2)cc1 (configuration not stated)
- GI50 (Hs-578T): 5.64 µM (inactive)

Structure (SMILES): CN1C/C(=C\c2cccs2)C2=NN(c3ccccc3)C(c3cccs3)C2C1 (configuration not stated)
- GI50 (Hs-578T): > 100 µM (inactive)

Structure (SMILES): C#CCCOC1(OC)N=NC(C)(C)O1 (configuration not stated)
- GI50 (Hs-578T): > 100 µM (inactive)

Structure (SMILES): CCCCCCN1CCc2c(C)c(C#N)c3nc4ccccc4n3c21
- GI50 (Hs-578T): 8.73 µM (inactive)

Structure (SMILES): CC(C)(C)OC(=O)NCCCC(=O)NC1(c2cc3ccccc3s2)CCCCC1
- GI50 (Hs-578T): 24.6 µM (inactive)

Structure (SMILES): Cc1cc(C)c(-n2c(-c3ccccc3)cs/c2=N\N=C2C=C(C(C)(C)C)C(=O)C(C(C)(C)C)=C2)c(C)c1
- GI50 (DLD-1): > 100 µM (inactive)
- GI50 (DMS-114): 47.4 µM (inactive)
- GI50 (HOP-18): > 100 µM (inactive)
- GI50 (KM-20L2): > 100 µM (inactive)
- GI50 (M19-MEL): > 100 µM (inactive)
- GI50 (SNB-78): > 100 µM (inactive)
- GI50 (XF498): > 100 µM (inactive)

Structure (SMILES): COc1cccc(/C=C/C2=NN(c3cccc(S(=O)(=O)O)c3)C3(C2)SCC(=O)N3c2nc3ccccc3s2)c1 (configuration not stated)
- GI50 (Hs-578T): 32.7 µM (inactive)

Structure (SMILES): CC1=CCC23C(C1)OC(Br)(C=CC2(C)O)C3(C)C (configuration not stated)
- GI50 (DLD-1): > 100 µM (inactive)
- GI50 (DMS-114): > 100 µM (inactive)
- GI50 (HOP-18): > 100 µM (inactive)
- GI50 (M19-MEL): > 100 µM (inactive)
- GI50 (SNB-78): > 100 µM (inactive)
- GI50 (XF498): > 100 µM (inactive)

Structure (SMILES): CC(=N\c1ccncc1)/C(C)=N/c1ccncc1
- GI50 (Hs-578T): 28.8 µM (inactive)

Structure (SMILES): N#Cc1c(-c2ccccc2)c(-c2ccccc2)cc2c(=O)c3ccc(Cl)cc3[nH]c12
- GI50 (DLD-1): > 100 µM (inactive)
- GI50 (HOP-18): > 100 µM (inactive)
- GI50 (KM-20L2): > 100 µM (inactive)
- GI50 (M19-MEL): > 100 µM (inactive)
- GI50 (XF498): > 100 µM (inactive)

Structure (SMILES): CCOC(=O)NC/C=C/COC1CCCCO1 (configuration not stated)
- GI50 (DLD-1): > 100 µM (inactive)
- GI50 (DMS-114): > 100 µM (inactive)
- GI50 (HOP-18): > 100 µM (inactive)
- GI50 (KM-20L2): > 100 µM (inactive)
- GI50 (M19-MEL): > 100 µM (inactive)
- GI50 (SNB-78): > 100 µM (inactive)

Structure (SMILES): Nc1ccccc1C(=O)/C=C/c1c(O)ccc2ccccc12
- GI50 (DLD-1): > 100 µM (inactive)
- GI50 (DMS-114): > 100 µM (inactive)
- GI50 (HOP-18): > 100 µM (inactive)
- GI50 (KM-20L2): > 100 µM (inactive)
- GI50 (M19-MEL): 19.4 µM (inactive)
- GI50 (RXF 631): > 100 µM (inactive)
- GI50 (SNB-78): > 100 µM (inactive)

Structure (SMILES): O=[N+]([O-])c1cc2oc(CSc3ccccc3)nc2cc1Cl
- GI50 (Hs-578T): 51.6 µM (inactive)

Structure (SMILES): CC1CCC2C(C)C3C(CC4C5CC=C6CC(OC7OC(CO)C(O)C(OC8OC(CO)C(O)C(O)C8O)C7OC7OC(C)C(O)C(O)C7O)CCC6(C)C5CCC43C)N2C1 (configuration not stated)
- GI50 (Hs-578T): 13.7 µM (inactive)

Structure (SMILES): CC(=N\N=C\c1ccccn1)/C(C)=N/N=C/c1ccccn1
- GI50 (Hs-578T): > 100 µM (inactive)

Structure (SMILES): C[n+]1c2ccccc2n2c3ccccc3c(NCCCN3CCOCC3)c(C#N)c21
- GI50 (Hs-578T): 1.41 µM (inactive)

Structure (SMILES): CCOC(=O)C(NC(=O)c1ccccc1)(N1CCN(c2cc3c(cc2F)c(=O)c(C(=O)O)cn3C2CC2)CC1)C(F)(F)F (configuration not stated)
- GI50 (Hs-578T): 26.2 µM (inactive)

Structure (SMILES): O=[As](O)(O)c1ccc(/N=N/c2ccc(O)cc2)cc1
- GI50 (Hs-578T): > 100 µM (inactive)

Structure (SMILES): COc1ccc(C(=C(C#N)C#N)c2ccc(OC)cc2)cc1
- GI50 (DMS-114): 77.1 µM (inactive)
- GI50 (KM-20L2): > 100 µM (inactive)
- GI50 (SNB-78): > 100 µM (inactive)

Structure (SMILES): CC1=C(O)C(=O)C[C@]2(C)[C@H]3CC=C4[C@@H]5CC(C)(C)CC[C@@H]5C(=O)[C@H](O)[C@@]4(C)[C@]3(C)CC[C@@H]12
- GI50 (Hs-578T): 25.1 µM (inactive)

Structure (SMILES): CC(=O)OC1CC2CCN3C(=O)c4cc5c(cc4[C@H](C1OC(C)=O)C23)OCO5 (some centres not stated)
- GI50 (DLD-1): > 100 µM (inactive)
- GI50 (KM-20L2): > 100 µM (inactive)
- GI50 (M19-MEL): > 100 µM (inactive)
- GI50 (SNB-78): > 100 µM (inactive)

Structure (SMILES): CC1=CC=C2c3ccccc3C=CN2C(=O)C1
- GI50 (Hs-578T): 35.6 µM (inactive)

Structure (SMILES): CC[C@@H](/C=C\CCC(=O)C[C@H](O)CCC=C(C)C)O[Si](C(C)C)(C(C)C)C(C)C
- GI50 (Hs-578T): > 100 µM (inactive)

Structure (SMILES): CC(NC(=O)C1(N)CCCC1)C(=O)O (configuration not stated)
- GI50 (Hs-578T): > 100 µM (inactive)

Structure (SMILES): O=C1CC[C@H](NC(=O)Cc2ccccc2)C(=O)N1 [ANTINEOPLASTON A10]
- GI50 (DLD-1): > 1250 µM (inactive)
- GI50 (HOP-18): > 1250 µM (inactive)
- GI50 (KM-20L2): > 1250 µM (inactive)
- GI50 (M19-MEL): > 1250 µM (inactive)
- GI50 (XF498): > 1250 µM (inactive)

Structure (SMILES): O=C(c1ccco1)N1CCCN(C(=O)c2ccco2)C1=S
- GI50 (Hs-578T): > 100 µM (inactive)

Structure (SMILES): COC1=C(C)C(=O)c2c(c(COC(N)=O)c3n2CC(OC(C)=O)C3OC(C)=O)C1=O (configuration not stated)
- GI50 (Hs-578T): 0.239 µM (active)

Structure (SMILES): Nc1ncnc2c1ccn2C/C=C/CO
- GI50 (Hs-578T): > 100 µM (inactive)

Structure (SMILES): CC(C)/C(Cl)=N\OC(=O)Nc1ccc(S(N)(=O)=O)cc1
- GI50 (Hs-578T): 25.2 µM (inactive)

Structure (SMILES): COc1ccc(C(=O)C(c2ccc(OCc3ccccc3)cc2)c2ccc(OCc3ccccc3)cc2)cc1
- GI50 (DLD-1): > 100 µM (inactive)
- GI50 (DMS-114): > 100 µM (inactive)
- GI50 (KM-20L2): > 100 µM (inactive)
- GI50 (M19-MEL): > 100 µM (inactive)
- GI50 (RXF 631): 2.67 µM (inactive)
- GI50 (SNB-78): > 100 µM (inactive)
- GI50 (XF498): > 100 µM (inactive)

Structure (SMILES): CC(C)NC(=O)OCc1c(COC(=O)NC(C)C)c(-c2ccc[n+](COC(=O)C3CCCCC3)c2)n2c1CCC2
- GI50 (Hs-578T): > 100 µM (inactive)

Structure (SMILES): CN1C=Cc2nccc3cc4c(c1c23)OCO4
- GI50 (Hs-578T): 13.5 µM (inactive)

Structure (SMILES): COC(=O)C1C=CCON2CCc3c(n(S(=O)(=O)c4ccccc4)c4ccccc34)C12 (configuration not stated)
- GI50 (DLD-1): 10.7 µM (inactive)
- GI50 (DMS-114): 41.2 µM (inactive)
- GI50 (HOP-18): 64.6 µM (inactive)
- GI50 (KM-20L2): 42.1 µM (inactive)
- GI50 (M19-MEL): 40.6 µM (inactive)
- GI50 (SNB-78): > 100 µM (inactive)

Structure (SMILES): CN(CC(=O)O)c1ncc2c(n1)CCCC2
- GI50 (Hs-578T): > 100 µM (inactive)

Structure (SMILES): CC[C@H]1CC(=O)c2c(cc3c(c2O)C(=O)c2ccccc2C3=O)[C@@]1(C#N)C(=O)OC(C)(C)C
- GI50 (DLD-1): 2.33 µM (inactive)
- GI50 (DMS-114): 3.21 µM (inactive)
- GI50 (HOP-18): 3.52 µM (inactive)
- GI50 (KM-20L2): 4.08 µM (inactive)
- GI50 (M19-MEL): 3.7 µM (inactive)
- GI50 (SNB-78): 4.89 µM (inactive)
- GI50 (XF498): 2.74 µM (inactive)

Reference: ChEMBL document CHEMBL1201862, “PubChem BioAssay data set” (2004)
